Measurements: ChEMBL document CHEMBL4507299, “Data for DCP probe PF-04554878” (2021)
Calls of active or inactive are those of the source. The calls are words filed in the database; no cut-off is given here.

How the values were obtained:
[1] = target: Proto-oncogene tyrosine-protein kinase ROS (Homo sapiens) (UniProt P08922)
[2] = target: Dual specificity mitogen-activated protein kinase kinase 2 (Homo sapiens) (UniProt P36507)
[3] = target: Tyrosine-protein kinase CSK (Homo sapiens) (UniProt P41240)
Chain of Tyrosine-protein kinase CSK (Homo sapiens) (P41240 2-450 limits assumed): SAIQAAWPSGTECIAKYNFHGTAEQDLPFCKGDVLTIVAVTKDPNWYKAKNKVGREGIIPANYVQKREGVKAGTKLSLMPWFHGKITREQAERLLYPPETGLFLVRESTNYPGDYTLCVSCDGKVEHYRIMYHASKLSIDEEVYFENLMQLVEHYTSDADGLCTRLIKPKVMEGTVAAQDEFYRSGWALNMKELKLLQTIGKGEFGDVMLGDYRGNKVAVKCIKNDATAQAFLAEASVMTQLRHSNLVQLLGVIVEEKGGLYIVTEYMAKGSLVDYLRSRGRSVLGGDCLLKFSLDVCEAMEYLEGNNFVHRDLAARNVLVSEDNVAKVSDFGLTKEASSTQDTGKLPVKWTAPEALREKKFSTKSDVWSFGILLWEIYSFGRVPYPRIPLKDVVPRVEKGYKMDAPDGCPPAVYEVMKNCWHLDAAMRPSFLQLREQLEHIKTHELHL

[4] = target: Mitogen-activated protein kinase kinase kinase 2 (Homo sapiens) (UniProt Q9Y2U5)
[5] = target: T1, Protein-tyrosine kinase 2-beta (Homo sapiens, UniProt Q14289); assay: Binding assay (PTK2B)
Target sequence in this assay (Q14289 whole entry): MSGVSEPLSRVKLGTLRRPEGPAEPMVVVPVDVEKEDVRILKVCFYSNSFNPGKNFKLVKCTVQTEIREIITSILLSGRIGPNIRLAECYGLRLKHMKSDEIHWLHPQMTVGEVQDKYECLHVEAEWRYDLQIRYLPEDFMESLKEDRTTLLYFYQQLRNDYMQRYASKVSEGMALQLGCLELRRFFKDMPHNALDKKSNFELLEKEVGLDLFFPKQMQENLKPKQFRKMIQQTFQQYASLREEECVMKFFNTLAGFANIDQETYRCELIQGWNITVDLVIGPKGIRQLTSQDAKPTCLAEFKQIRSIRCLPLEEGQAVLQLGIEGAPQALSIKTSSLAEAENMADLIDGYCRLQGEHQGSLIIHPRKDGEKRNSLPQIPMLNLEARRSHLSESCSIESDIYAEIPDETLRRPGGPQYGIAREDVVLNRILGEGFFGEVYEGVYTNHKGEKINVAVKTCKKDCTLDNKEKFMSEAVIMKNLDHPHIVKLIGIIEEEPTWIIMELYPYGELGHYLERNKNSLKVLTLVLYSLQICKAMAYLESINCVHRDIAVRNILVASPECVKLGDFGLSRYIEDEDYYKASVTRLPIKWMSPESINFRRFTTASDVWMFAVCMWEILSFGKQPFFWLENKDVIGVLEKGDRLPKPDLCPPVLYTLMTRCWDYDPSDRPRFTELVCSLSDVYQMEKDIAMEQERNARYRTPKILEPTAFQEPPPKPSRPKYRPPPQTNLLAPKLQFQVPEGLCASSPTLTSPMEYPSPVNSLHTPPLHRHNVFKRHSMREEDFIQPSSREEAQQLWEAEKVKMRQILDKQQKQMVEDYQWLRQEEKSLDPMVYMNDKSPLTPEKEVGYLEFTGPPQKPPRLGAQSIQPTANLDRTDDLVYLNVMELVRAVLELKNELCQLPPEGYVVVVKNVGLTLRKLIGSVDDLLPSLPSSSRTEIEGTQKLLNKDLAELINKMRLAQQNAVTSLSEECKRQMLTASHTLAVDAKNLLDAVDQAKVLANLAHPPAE

[6] = target: T2, Serine/threonine-protein kinase TAO3 (Homo sapiens) (UniProt Q9H2K8)
T2 sequence (whole entry): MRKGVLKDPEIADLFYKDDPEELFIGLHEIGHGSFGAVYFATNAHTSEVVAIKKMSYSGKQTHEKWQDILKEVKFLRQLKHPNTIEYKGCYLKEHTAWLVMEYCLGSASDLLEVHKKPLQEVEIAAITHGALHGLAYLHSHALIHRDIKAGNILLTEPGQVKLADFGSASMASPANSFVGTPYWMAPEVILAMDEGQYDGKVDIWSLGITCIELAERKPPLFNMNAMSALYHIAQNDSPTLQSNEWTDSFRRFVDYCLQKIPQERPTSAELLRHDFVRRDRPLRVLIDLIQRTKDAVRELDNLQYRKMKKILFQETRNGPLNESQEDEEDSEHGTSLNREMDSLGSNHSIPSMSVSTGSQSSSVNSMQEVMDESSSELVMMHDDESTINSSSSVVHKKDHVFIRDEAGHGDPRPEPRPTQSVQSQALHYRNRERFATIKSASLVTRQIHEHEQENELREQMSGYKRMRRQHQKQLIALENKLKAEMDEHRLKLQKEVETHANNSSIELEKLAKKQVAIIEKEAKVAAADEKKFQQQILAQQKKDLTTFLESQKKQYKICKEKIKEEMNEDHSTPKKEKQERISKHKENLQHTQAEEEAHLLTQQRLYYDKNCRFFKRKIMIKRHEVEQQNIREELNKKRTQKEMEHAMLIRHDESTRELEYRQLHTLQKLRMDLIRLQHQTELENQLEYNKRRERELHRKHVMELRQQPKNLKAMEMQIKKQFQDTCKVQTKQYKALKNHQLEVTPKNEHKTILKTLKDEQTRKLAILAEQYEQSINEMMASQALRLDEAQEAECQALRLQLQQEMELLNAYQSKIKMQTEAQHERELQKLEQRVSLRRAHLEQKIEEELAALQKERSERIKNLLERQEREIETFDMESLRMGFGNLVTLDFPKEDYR

[7] = target: Serine/threonine-protein kinase 38-like (Homo sapiens) (UniProt Q9Y2H1)
Chain of Serine/threonine-protein kinase 38-like (Homo sapiens) (Q9Y2H1 2-464 limits assumed): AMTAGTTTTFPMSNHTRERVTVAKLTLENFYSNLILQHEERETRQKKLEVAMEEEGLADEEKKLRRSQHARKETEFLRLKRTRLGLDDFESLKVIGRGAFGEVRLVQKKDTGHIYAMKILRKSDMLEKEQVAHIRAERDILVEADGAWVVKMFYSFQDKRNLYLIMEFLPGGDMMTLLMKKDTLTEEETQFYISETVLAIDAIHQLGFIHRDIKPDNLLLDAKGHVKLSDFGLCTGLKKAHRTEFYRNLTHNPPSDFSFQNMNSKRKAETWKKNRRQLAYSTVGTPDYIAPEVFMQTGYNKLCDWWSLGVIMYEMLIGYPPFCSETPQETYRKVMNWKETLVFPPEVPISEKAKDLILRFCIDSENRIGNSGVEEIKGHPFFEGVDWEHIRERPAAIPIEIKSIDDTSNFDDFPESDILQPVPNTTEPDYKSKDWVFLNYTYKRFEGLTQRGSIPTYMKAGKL

[8] = target: Tyrosine-protein kinase Mer (Homo sapiens) (UniProt Q12866)
[9] = target: T1, Protein-tyrosine kinase 2-beta
Target sequence in this assay (Q14289 whole entry, looked up): as the sequence (Q14289 whole entry) above

[10] = target: Leucine-rich repeat serine/threonine-protein kinase 2 (Homo sapiens) (UniProt Q5S007)
[11] = target: Serine/threonine-protein kinase MARK1 (Homo sapiens, UniProt Q9P0L2)
[12] = target: Tyrosine-protein kinase ITK/TSK (Homo sapiens) (UniProt Q08881)
[13] = target: Serine/threonine-protein kinase BRSK1 (Homo sapiens) (UniProt Q8TDC3)
[14] = target: 5'-AMP-activated protein kinase catalytic subunit alpha-2 (Homo sapiens) (UniProt P54646)
[15] = target: Phosphatidylinositol 4,5-bisphosphate 3-kinase catalytic subunit alpha isoform (Homo sapiens) (UniProt P42336)
Chain of Phosphatidylinositol 4,5-bisphosphate 3-kinase catalytic subunit alpha isoform (Homo sapiens) (P42336 whole entry, canonical isoform): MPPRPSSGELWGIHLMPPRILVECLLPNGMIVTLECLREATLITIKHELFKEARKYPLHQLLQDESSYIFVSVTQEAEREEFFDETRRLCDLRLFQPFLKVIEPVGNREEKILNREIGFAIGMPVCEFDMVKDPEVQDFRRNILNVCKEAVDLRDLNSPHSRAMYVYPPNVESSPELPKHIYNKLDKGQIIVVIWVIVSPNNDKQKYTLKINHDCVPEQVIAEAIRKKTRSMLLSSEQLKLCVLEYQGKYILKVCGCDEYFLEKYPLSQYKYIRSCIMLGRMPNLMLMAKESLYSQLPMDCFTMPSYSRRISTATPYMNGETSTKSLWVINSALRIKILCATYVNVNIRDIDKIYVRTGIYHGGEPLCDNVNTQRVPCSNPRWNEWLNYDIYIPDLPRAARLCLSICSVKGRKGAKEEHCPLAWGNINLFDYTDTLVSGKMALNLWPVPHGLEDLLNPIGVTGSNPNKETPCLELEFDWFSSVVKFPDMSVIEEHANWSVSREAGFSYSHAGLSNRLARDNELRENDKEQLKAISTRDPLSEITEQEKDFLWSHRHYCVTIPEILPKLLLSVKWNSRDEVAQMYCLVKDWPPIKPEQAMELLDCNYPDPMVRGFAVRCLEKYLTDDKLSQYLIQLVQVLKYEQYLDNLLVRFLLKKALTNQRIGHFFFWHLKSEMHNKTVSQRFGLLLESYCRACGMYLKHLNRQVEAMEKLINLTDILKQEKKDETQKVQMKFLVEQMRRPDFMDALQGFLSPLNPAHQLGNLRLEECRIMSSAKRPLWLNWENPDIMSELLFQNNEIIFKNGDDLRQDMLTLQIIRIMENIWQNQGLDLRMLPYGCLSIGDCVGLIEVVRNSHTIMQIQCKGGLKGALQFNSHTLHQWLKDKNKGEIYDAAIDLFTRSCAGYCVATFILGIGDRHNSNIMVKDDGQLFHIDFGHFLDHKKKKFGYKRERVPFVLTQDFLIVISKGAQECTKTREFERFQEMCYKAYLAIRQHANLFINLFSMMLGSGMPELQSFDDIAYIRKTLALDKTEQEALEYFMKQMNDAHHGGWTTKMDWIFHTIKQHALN

[16] = target: Alpha-2B adrenergic receptor (Homo sapiens) (UniProt P18089); settings: Compound concentration 10.0 uM
[17] = tested on: Tyrosine-protein kinase ABL1 (Homo sapiens), P00519 [H396P]
[18] = tested on: Proto-oncogene tyrosine-protein kinase receptor Ret (Homo sapiens), P07949 [M918T]
[19] = target: Mitogen-activated protein kinase kinase kinase 10 (Homo sapiens) (UniProt Q02779)
[20] = target: Vascular endothelial growth factor receptor 2 (Homo sapiens) (UniProt P35968)
[21] = target: D(4) dopamine receptor (Homo sapiens) (UniProt P21917); settings: Compound concentration 10.0 uM
[22] = tested on: Epidermal growth factor receptor (Homo sapiens), P00533 [G719C]
[23] = target: SRSF protein kinase 3 (Homo sapiens) (UniProt Q9UPE1)
[24] = target: Ephrin type-B receptor 4 (Homo sapiens) (UniProt P54760)
[25] = target: Cyclin-dependent kinase 19 (Homo sapiens) (UniProt Q9BWU1)
[26] = target: Serine/threonine-protein kinase SIK1 (Homo sapiens) (UniProt P57059)
Chain of Serine/threonine-protein kinase SIK1 (Homo sapiens) (P57059 whole entry): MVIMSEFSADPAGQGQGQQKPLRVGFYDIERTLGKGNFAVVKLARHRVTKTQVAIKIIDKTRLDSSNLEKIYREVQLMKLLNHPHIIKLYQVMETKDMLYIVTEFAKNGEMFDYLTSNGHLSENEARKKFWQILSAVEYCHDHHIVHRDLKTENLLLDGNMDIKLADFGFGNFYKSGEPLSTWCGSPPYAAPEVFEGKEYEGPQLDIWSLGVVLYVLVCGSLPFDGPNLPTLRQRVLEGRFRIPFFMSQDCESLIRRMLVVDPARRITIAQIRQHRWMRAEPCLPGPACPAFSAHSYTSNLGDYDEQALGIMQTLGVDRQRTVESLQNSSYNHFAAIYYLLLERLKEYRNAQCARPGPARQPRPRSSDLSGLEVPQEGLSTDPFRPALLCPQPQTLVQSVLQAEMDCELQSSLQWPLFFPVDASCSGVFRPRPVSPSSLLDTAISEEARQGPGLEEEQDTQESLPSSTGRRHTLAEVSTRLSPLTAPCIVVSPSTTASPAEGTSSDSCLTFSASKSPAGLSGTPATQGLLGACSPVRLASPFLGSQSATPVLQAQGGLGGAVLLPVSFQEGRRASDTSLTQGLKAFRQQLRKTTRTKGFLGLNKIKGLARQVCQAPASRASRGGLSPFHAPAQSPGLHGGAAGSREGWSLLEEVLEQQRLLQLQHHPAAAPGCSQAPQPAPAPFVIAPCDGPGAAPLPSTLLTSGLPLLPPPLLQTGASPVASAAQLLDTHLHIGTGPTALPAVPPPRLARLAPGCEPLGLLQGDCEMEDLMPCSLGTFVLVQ

[27] = target: Mitogen-activated protein kinase kinase kinase 11 (Homo sapiens) (UniProt Q16584)
Chain of Mitogen-activated protein kinase kinase kinase 11 (Homo sapiens) (Q16584 whole entry, looked up): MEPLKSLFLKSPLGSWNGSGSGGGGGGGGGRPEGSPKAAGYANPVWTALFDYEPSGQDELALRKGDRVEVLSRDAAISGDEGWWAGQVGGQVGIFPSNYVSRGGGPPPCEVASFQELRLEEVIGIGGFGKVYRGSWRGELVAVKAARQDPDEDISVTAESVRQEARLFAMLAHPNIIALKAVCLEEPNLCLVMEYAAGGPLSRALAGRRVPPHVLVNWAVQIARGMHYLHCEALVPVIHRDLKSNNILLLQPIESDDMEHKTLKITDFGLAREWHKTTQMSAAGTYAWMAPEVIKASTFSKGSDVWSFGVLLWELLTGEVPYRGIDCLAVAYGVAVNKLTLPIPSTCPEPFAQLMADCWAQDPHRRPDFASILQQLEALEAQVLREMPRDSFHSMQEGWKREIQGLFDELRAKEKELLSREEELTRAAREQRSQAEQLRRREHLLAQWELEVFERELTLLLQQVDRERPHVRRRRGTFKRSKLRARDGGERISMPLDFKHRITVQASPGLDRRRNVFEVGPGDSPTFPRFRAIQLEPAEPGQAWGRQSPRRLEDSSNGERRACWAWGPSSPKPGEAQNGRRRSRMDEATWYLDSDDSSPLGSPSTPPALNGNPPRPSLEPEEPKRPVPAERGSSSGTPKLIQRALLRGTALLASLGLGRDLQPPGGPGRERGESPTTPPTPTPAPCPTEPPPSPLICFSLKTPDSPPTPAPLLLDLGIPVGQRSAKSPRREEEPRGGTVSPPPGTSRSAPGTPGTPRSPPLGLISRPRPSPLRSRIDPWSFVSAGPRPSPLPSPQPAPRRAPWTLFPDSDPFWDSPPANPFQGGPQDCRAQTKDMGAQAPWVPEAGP

[28] = target: 5-hydroxytryptamine receptor 6 (Homo sapiens) (UniProt P50406); settings: Compound concentration 10.0 uM
[29] = target: Mitogen-activated protein kinase kinase kinase 19 (Homo sapiens) (UniProt Q56UN5)
[30] = target: Serine/threonine-protein kinase ULK1 (Homo sapiens) (UniProt O75385)
[31] = tested on: Epidermal growth factor receptor (Homo sapiens), P00533 [T790M]
[32] = target: Transient receptor potential cation channel subfamily M member 6 (Homo sapiens) (UniProt Q9BX84)
[33] = target: Insulin receptor-related protein (Homo sapiens) (UniProt P14616)
[34] = Compound concentration 100.0 nM
[35] = Compound concentration 1000.0 nM

Chain of Dual specificity mitogen-activated protein kinase kinase 2 (Homo sapiens) (P36507 whole entry): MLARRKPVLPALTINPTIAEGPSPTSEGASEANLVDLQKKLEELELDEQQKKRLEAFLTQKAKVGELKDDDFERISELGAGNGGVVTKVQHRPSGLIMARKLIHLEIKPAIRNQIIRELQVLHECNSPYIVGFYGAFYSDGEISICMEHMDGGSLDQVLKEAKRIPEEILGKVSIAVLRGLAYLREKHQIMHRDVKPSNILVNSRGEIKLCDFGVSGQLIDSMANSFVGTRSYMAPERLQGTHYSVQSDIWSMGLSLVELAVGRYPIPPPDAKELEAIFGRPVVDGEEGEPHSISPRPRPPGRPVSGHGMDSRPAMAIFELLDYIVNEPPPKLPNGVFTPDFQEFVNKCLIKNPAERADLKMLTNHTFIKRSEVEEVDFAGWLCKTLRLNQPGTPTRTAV

`CNC(=O)c1ccc(Nc2ncc(C(F)(F)F)c(NCc3nccnc3N(C)S(C)(=O)=O)n2)cc1` [DEFACTINIB] gave a residual activity [1, 34] of 58%, a residual activity [2, 34] of 100% and a residual activity [3, 34] of 100%. For the same compound, the residual activity [4, 34] was 65%, the IC50 [5] was 0.2 nM (active) and the residual activity [6, 34] was 26%. For the same compound, the residual activity [7, 34] was 73%, the residual activity [8, 34] was 54% and the residual activity [9, 34] was 8.3%. The residual activity [10, 34] was 60%, the residual activity [11, 34] was 100% and the residual activity [12, 34] was 80%. It also gave a residual activity [13, 34] of 100%, a residual activity [14, 34] of 100% and a residual activity [15, 34] of 100%. For the same compound, the inhibition [16] was 5.76%, the residual activity [17, 34] was 68% and the residual activity [18, 34] was 72%. For the same compound, the residual activity [19, 34] was 68%, the residual activity [20, 34] was 73% and the inhibition [21] was 7.8%. The residual activity [22, 34] was 94%, the residual activity [23, 34] was 100% and the residual activity [24, 34] was 94%. It also gave a residual activity [25, 34] of 100%, a residual activity [26, 34] of 90% and a residual activity [27, 34] of 35%. It also gave an inhibition [28] of -8.99%, a residual activity [29, 34] of 1.7% and a residual activity [30, 34] of 47%. For the same compound, the residual activity [31, 34] was 99%, the residual activity [32, 34] was 98% and the residual activity [33, 34] was 95%.

With `CN(c1ccnc(CNc2nc(Nc3ccc4c(c3)CC(=O)N4)ncc2C(F)(F)F)n1)S(C)(=O)=O` [PF-00911705] the residual activity [1, 35] was 43%, the residual activity [2, 35] was 82% and the residual activity [3, 35] was 74%. The residual activity [4, 35] was 9.7%, the IC50 [5] was 721 nM (not active) and the residual activity [6, 35] was 12%. For the same compound, the residual activity [7, 35] was 75%, the residual activity [8, 35] was 21% and the residual activity [9, 35] was 59%. The residual activity [10, 35] was 15%, the residual activity [11, 35] was 77% and the residual activity [12, 35] was 93%. The residual activity [13, 35] was 43%, the residual activity [14, 35] was 87% and the residual activity [15, 35] was 100%. The inhibition [16] was -4.21%, the residual activity [17, 35] was 26% and the residual activity [18, 35] was 50%. It also gave a residual activity [19, 35] of 49%, a residual activity [20, 35] of 56% and an inhibition [21] of 2.34%. For the same compound, the residual activity [22, 35] was 86%, the residual activity [23, 35] was 11% and the residual activity [24, 35] was 96%. It also gave a residual activity [25, 35] of 84%, a residual activity [26, 35] of 76% and a residual activity [27, 35] of 32%. The inhibition [28] was 11.1%, the residual activity [29, 35] was 0.4% and the residual activity [30, 35] was 1.2%. The residual activity [31, 35] was 100%, the residual activity [32, 35] was 86% and the residual activity [33, 35] was 100%.
